# Values quoted from earlier work, collected in patent US20040102473A1, “Method of preventing or treating atherosclerosis or restenosis” (priority 2002, published 2004).
# Tested on: CMV
# Details: DHPG prophylaxis, Lemstrom et al., Circulation 1994
compound,measurement,value
Nc1nc(O)c2ncn(COC(CO)CO)c2n1 [Ganciclovir],prevention of atherosclerosis resulting from CMV infection of rats,prevent atherosclerosis
